Reference: article PMC12386809, “Phenanthrene Monomers and Dimers from Juncus tenuis with Antiproliferative Activity and Synergistic Effect with Doxorubicin Against Human Colon Cancer Cell Lines” (International Journal of Molecular Sciences, 2025)
Read-outs that look alike come from different tables or passages of the source.

Legend:
[1] = system: CCD-19Lu non-cancerous human lung fibroblast cells; test: MTT antiproliferative assay, CCD-19Lu; format: cell-based; conditions: 72 h, CCD-19Lu non-tumorigenic fibroblasts, read-out: IC50 (µM) ± SD CCD-19Lu
Experimental: (§1) The antiproliferative effects of the isolated phenanthrenes (compounds 1–19) were evaluated using human cancer cell lines, including doxorubicin-sensitive colonic adenocarcinoma COLO 205 and multidrug-resistant colonic adenocarcinoma COLO 320/MDR-LRP (which expresses P-glycoprotein [MDR1] and LRP), as well as non-cancerous human lung fibroblast CCD-19Lu cells. CCD-19Lu was chosen because it is a well-characterized, non-tumorigenic cell line commonly used to assess general cytotoxicity. Moreover, data from the literature support the use of lung fibroblast cell lines—including CCD-19Lu—as normal controls in studies involving colon cancer cells such as Colo 205 and Colo 320 [33]. The thiazolyl blue tetrazolium bromide (MTT) assay was employed to determine the concentration of each compound required to inhibit 50% of the cell viability (IC50), as summarized in Table 3.
(§2) The human colon adenocarcinoma cells—COLO 205 (CCL-222, doxorubicin-sensitive) and COLO 320/MDR-LRP (ATCC-CCL-220.1, multidrug-resistant, expressing P-gp)—were cultured in RPMI 1640 medium supplemented with 10% heat-inactivated fetal bovine serum, 2 mM of L-glutamine, 1 mM of sodium pyruvate, and 100 mM of HEPES. The non-cancerous human lung fibroblast cell line CCD-19Lu was maintained in Eagle’s Minimal Essential Medium (EMEM; containing 4.5 g/L of glucose) supplemented with a non-essential amino acid mixture, selected vitamins, and 10% heat-inactivated fetal bovine serum. All of the cell lines were detached using 0.25% trypsin and 0.02% EDTA for 5 min at 37 °C. The cell lines were obtained from LGC Promochem (Teddington, England).
(§3) Human colonic adenocarcinoma cell lines—doxorubicin-sensitive COLO 205 and multidrug-resistant COLO 320—as well as the non-cancerous human lung fibroblast cell line CCD-19Lu were used to evaluate the effects of the test compounds on cell proliferation. The assays were conducted in 96-well flat-bottomed microtiter plates. Stock solutions of the compounds were prepared in dimethyl sulfoxide (DMSO), with the final DMSO concentration kept below 1% in all samples. The compounds were diluted in 100 µL of the appropriate culture medium. Adherent cells were cultured in EMEM supplemented with 10% heat-inactivated fetal bovine serum and seeded into 96-well plates at a density of 6 × 10^3 cells per 100 µL per well. The cells were allowed to adhere for 24 h at 37 °C in a humidified incubator with 5% CO2. After incubation, the medium was removed and replaced with 100 µL of fresh medium. Serial dilutions of the compounds were prepared in separate plates and added to the cells, starting from a concentration of 100 µM with twofold serial dilutions (final concentration range: 100–0.19 µM). The cells were then incubated for 72 h at 37 °C. At the end of the incubation period, 20 µL of thiazolyl blue tetrazolium bromide (MTT) solution (5 mg/mL, Sigma) was added to each well. After 4 h of incubation at 37 °C, 100 µL of 10% sodium dodecyl sulfate (SDS) in 0.01 M HCl was added to solubilize the formazan crystals, and the plates were incubated overnight at 37 °C. Cell viability was assessed by measuring the optical density (OD) at 540/630 nm using a Multiscan EX ELISA reader (Thermo Labsystems, Cheshire, WA, USA).
(§4) The inhibitory concentration that reduced cell growth by 50% (IC50) was determined from the dose–response curves. The percent inhibition was calculated using the formula100 − ((OD_sample − OD_medium control)/(OD_cell control − OD_medium control)) × 100
(§5) Dose–response curves were generated by plotting the percent inhibition against the logarithm of the compound concentrations and fitted using Prism5 software (Version 6, GraphPad Software Inc., San Diego, CA, USA). The IC50 values were derived from four independent experiments conducted in parallel for each cell line and are reported as the mean values.

[2] = system: COLO 320/MDR-LRP multidrug-resistant human colonic adenocarcinoma cells; test: MTT antiproliferative assay, COLO 320; format: cell-based; conditions: COLO 320 (multidrug-resistant), read-out: IC50 (µM) ± SD COLO 320
Experimental: as §1, §2, §3, §4, §5

[3] = system: multidrug-resistant COLO 320 cells; test: Drug combination assay with doxorubicin (Chou-Talalay, MTT); format: cell-based, human; conditions: for CI at ED50 (combination index): combination with doxorubicin, COLO 320, 72 h, Chou-Talalay; for Interaction: interaction with doxorubicin in COLO 320, class from CI
Experimental: One promising approach involves the discovery of new bioactive natural products. To explore this, a chemosensitivity assay was conducted to examine the in vitro interactions between the isolated compounds and the antineoplastic agent doxorubicin, a substrate of P-glycoprotein (P-gp). A combination chemotherapy model was applied using human COLO 320 colon carcinoma cells. The combination index (CI), calculated according to the Chou–Talalay method, was used to evaluate drug–drug interactions, classifying them as synergistic (CI < 1), additive (CI = 1), or antagonistic (CI > 1) (Table 4).
The multidrug-resistant COLO 320 cell line was used to perform the drug combination assay. Doxorubicin (2 mg/mL, Teva Pharmaceuticals, Budapest, Hungary) was serially diluted horizontally, starting with 8.6 µM. The resistance modifier was subsequently diluted vertically, with the starting concentration determined based on the IC50 value. Doxorubicin was diluted horizontally in 100 µL, while the resistance modifiers were diluted vertically in 50 µL in the microtiter plate. The compounds and doxorubicin were prepared as separate dilutions. The cells were seeded at a density of 6 × 10^3 cells per well into 100 µL of medium and incubated for 24 h at 37 °C in a 5% CO2 atmosphere prior to treatment. After this period, the culture medium was removed, and 50 µL of fresh medium was added to each well, followed by the addition of 50 µL of the diluted compounds, resulting in a final volume of 200 µL per well. The plates were then incubated for 72 h at 37 °C under 5% CO2. The cell viability was assessed at the end of incubation using the MTT assay, as described previously. Drug interactions were analyzed using CompuSyn software (Version 1.00).
The dose–response curves for individual agents and their combinations were fitted to a linear model based on the median-effect equation to calculate the median effective dose (IC50) and the slope (m). The quality of the fit was evaluated using the linear correlation coefficient (r), and only data with r > 0.90 are reported. The extent of drug interaction was quantified using the combination index (CI), where CI ≈ 1 indicated an additive effect, CI < 1 signified synergy, and CI > 1 denoted antagonism.

[4] = system: COLO 205 (doxorubicin-sensitive) human colonic adenocarcinoma cells; test: MTT antiproliferative assay, COLO 205; format: cell-based; conditions: read-out: IC50 (µM) ± SD COLO 205
Experimental: as §1, §2, §3, §4, §5

[5] = system: HT22 cells (mouse hippocampal neuroblastoma cell line); parameters: method as in doi:10.1007/s11101-018-9561-5, PMID 25794817; conditions: 100 µM, 24 h; cited from earlier work
HeLa cells = system: HeLa cells; parameters: method as in PMID 33348712; conditions: cited from earlier work

Row | Compound | IC50 ([2]; Homo sapiens, COLO 320, 72 h) [µM] | IC50 ([4]; Homo sapiens, COLO 205, 72 h) [µM] | IC50 ([4]; 72 h) [µM] | IC50 [1] [µM] | CI at ED50 (combination index) [3] | IC50 ([2]; Homo sapiens, 72 h) [µM] | IC50 ([4]; Homo sapiens, 72 h) [µM] | decrease in MTT reduction [5] [%] | IC50 ([2]; 72 h) [µM] | Interaction [3] | IC50 (HeLa cells) [µM]
1 | C=Cc1c(CO)ccc2c1CCc1c-2ccc(O)c1C [Compound 18] | 31.5 ± 2.65 | 50.2 ± 0.74 | – | 70.8 ± 3.25 | 0.189 | – | – | – | – | – | –
2 | C=Cc1cc(O)cc2ccc3c(C)c(O)ccc3c12 [Compound 6, dehydroeffusol] | – | – | – | 58.17 ± 0.51 | 0.266 | 35.6 ± 3.89 | 36.7 ± 2.29 | – | – | – | –
3 | COc1cccc2c1C(=O)c1c(O)c3c(c(O)c1C2=O)C[C@@](O)(C(=O)CO)C[C@@H]3O[C@H]1C[C@H](N)[C@H](O)[C@H](C)O1 [doxorubicin] | 1.72 ± 0.5 | 0.53 ± 0.05 | – | 1.03 ± 0.18 | – | – | – | – | – | – | –
4 | C=CC1=C(C)C(=O)C=C2c3ccc(O)c(C)c3CCC21O (centres unmarked) [juncuenin D, reference compound] | – | – | – | – | – | – | – | 23.7 | – | – | –
5 | C=Cc1c(CO)ccc2c1ccc1c(C)c(O)ccc12 [Compound 9] | 42.6 ± 2.98 | > 100 | – | 75.3 ± 2.59 | 1.427 | – | – | – | – | moderate antagonism | –
6 | C=Cc1cc(O)c(CO)c2c1-c1ccc(O)c(C)c1CC2 [Compound 3, 2,7-dihydroxy-8-hydroxymethyl-1-methyl-5-vinyl-9,10-dihydrophenanthrene] | > 100 | > 100 | – | 96.8 ± 1.79 | – | – | – | – | – | – | –
7 | C=Cc1cc(O)cc2c1-c1cc(-c3c(O)cc4c(c3C=C)-c3ccc(O)c(C)c3CC4)c(O)c(C)c1CC2 [Compound 5, 1,1′-dimethyl-5,5′-divinyl-9,9′,10,10′-tetrahydro-[6,3′-biphenanthrene]-2,2′,7,7′-tetraol] | 12 ± 1.58 | 11.6 | 11.6 ± 0.22 | 13.8 ± 0.82 | 0.433 | – | – | – | – | synergism (0.3 < CI < 0.7, synergism) | –
8 | C=Cc1cc(O)cc2c1-c1cc(-c3cc4c(c(C)c3O)CCc3cc(O)cc(C=C)c3-4)c(O)c(C)c1CC2 [Compound 19, effususin A] | 17.3 ± 0.87 | 10.9 | 10.9 ± 0.51 | 18.8 ± 0.06 | – | – | – | – | – | – | –
9 | C=Cc1c(C)c(O)cc2c1ccc1c(C)c(O)ccc12 [Compound 8, dehydrojuncuenin B] | 17.9 ± 1.59 | 20.7 ± 0.47 | – | 22.8 ± 0.55 | 2.126 | – | – | 8.4 | – | antagonism (1.45 < CI < 3.3, antagonism) | –
10 | C=Cc1c(C)c(O)cc2c1CCc1c-2ccc(O)c1C [juncuenin B, reference compound] | – | – | – | – | – | – | – | 13.6 | – | – | –
11 | C=Cc1c(C)c(O)cc2ccc3c(C)c(O)ccc3c12 [Compound 7, dehydrojuncusol] | – | – | – | 42.04 ± 0.39 | 0.117 | 45.3 ± 2.78 | 28.16 ± 0.27 | – | – | – | –
12 | C=Cc1cc2c(ccc3c(C)c(O)ccc32)cc1CO [Compound 2, tenuin B] | 38.3 | 48.4 | 48.4 ± 1.03 | 96.08 ± 0.82 | – | – | – | – | 38.3 ± 1.84 | very strong synergism (CI < 0.1 indicates very strong synergism) | –
13 | C=Cc1cc(O)cc2ccc3c(c12)C=CC(=O)C3(C)O (centres unmarked) [Compound 1, Tenuin A] | > 100 | > 100 | – | > 100 | – | – | – | – | – | – | –
14 | C=Cc1cc(O)cc2c1-c1cc(-c3cc4c(c(C)c3O)CCc3cc(O)cc(C(C)OC)c3-4)c(O)c(C)c1CC2 (centres unmarked) [Compound 4, tenuin D] | 15.7 ± 2.2 | 7.6 ± 0.13 | – | 9.93 ± 0.84 | 0.669 | – | – | – | – | synergism (0.3 < CI < 0.7, synergism) | –

Continued, in another order:

Row | IC50 ([2]; Homo sapiens, COLO 320, 72 h) [µM] | IC50 ([4]; Homo sapiens, COLO 205, 72 h) [µM] | IC50 ([4]; 72 h) [µM] | Compound | IC50 [1] [µM] | CI at ED50 (combination index) [3] | IC50 ([2]; Homo sapiens, 72 h) [µM] | IC50 ([4]; Homo sapiens, 72 h) [µM] | decrease in MTT reduction [5] [%] | IC50 ([2]; 72 h) [µM] | Interaction [3] | IC50 (HeLa cells) [µM]
15 | 35.2 ± 4.68 | 37 ± 3.28 | – | C=Cc1cc(CO)cc2c1-c1ccc(O)c(C)c1CC2 [Compound 13] | 69.3 ± 1.77 | 0.163 | – | – | – | – | – | –
16 | 49.7 | 52.7 | 52.7 ± 1.85 | C=Cc1cc(O)cc2c1-c1ccc(O)c(C)c1CC2 [Compound 10, effusol] | 96 ± 2.66 | 1.123 | – | – | 9.9 | 49.7 ± 2.12 | slight antagonism | 2.3
17 | 47.6 ± 1.01 | 45.4 ± 2.16 | – | C=Cc1cc(C(=O)O)cc2c1-c1ccc(O)c(C)c1CC2 [Compound 15] | > 100 | 1.927 | – | – | – | – | antagonism (1.45 < CI < 3.3, antagonism) | –
18 | 35.1 ± 1.1 | 43.2 ± 3.82 | – | C=Cc1cc(O)c(C)c2c1-c1ccc(O)c(C)c1CC2 [Compound 17, 2,7-dihydroxy-1,8-dimethyl-5-vinyl-9,10-dihydrophenanthrene] | 64.7 ± 3.36 | 0.670 | – | – | – | – | synergism (0.3 < CI < 0.7, synergism) | –
19 | 39.58 ± 0.27 | 57.2 ± 3.98 | – | C=Cc1cc(C=O)cc2c1-c1ccc(O)c(C)c1CC2 [Compound 14] | 66.4 ± 1.58 | 0.219 | – | – | – | – | – | –
20 | 25.5 ± 2.05 | 34.73 ± 0.1 | – | C=Cc1cc(O)cc2c1-c1ccc(OC)c(C)c1CC2 [Compound 12] | 28.7 ± 1.11 | 1.347 | – | – | – | – | moderate antagonism | –
21 | 19.2 ± 0.32 | 35.8 ± 2.7 | – | C=Cc1c(C)c(O)cc2c1-c1ccc(OC)c(C)c1CC2 [Compound 16, compressin A] | 28 ± 2.73 | 2.312 | – | – | – | – | antagonism (1.45 < CI < 3.3, antagonism) | –
